Reference: patent US6369212B1, “Cytochrome P450 gene highly expressed in the incompatible interaction” (Korea Kumbo Petrochemical Co., Ltd., priority 2000, dated 2002)

Tested on: PepCYP mRNA
Assay: RNA gel blot analysis of PepCYP expression in pepper fruits drop-applied with ABA or JA
Design: species or system pepper (Capsicum annuum)
Experimental: Both ripe-red and unripe-mature-green fruits of pepper cv Nokkwang were grown and harvested under greenhouse conditions. For wound treatments, five healthy ripe and unripe fruits were deeply scratched with a knife and incubated at 100% relative humidity at 27° C. in the dark. Ten μl of ABA at 4 and 40 μM, or JA at 4 and 40 μM were drop-applied to both ripe and unripe sets of five fruits, respectively. After incubation under the conditions described above, the fruits were excised to 1 cm^2 at the drop-application site for the fungus, ABA or JA, and at the wounding site. The samples were then frozen in liquid nitrogen. Leaf, root, and stem samples were harvested from 3-week-old plants and handled as described above for fungal inoculation and wounding.
Total RNA (10 μg/lane) from each plant tissue used in this study was separated on 1.2% denaturing agarose gels in the presence of formaldehyde. RNA gel-blotting, hybridization and washing were conducted as described by the manufacturer of the positively charged nylon membrane employed (Hybond N^+; Amersham Pharmacia Biotech). Radiolabeled probes were prepared with [α-^32P]dCTP (Amersham Pharmacia Biotech) using a random primer-labeling kit (Boehringer, Mannheim, Germany).
Jasmonic acid (JA) is a plant hormone with roles in mechanical wounding responses (Creelman et al. 1992; Creelman and Mullet 1997). ABA is hypothesized to be a key component in wound-signaling cascade leading to the activation of a defense gene (Pena-Cortés et al. 1996; Wasternack and Partheir 1997). Thus, we further examined whether the wound-inducible PepCYP expression is inducible by ABA or JA treatments. RNA gel blot analysis was performed with total RNAs prepared from the application sites of both ripe and unripe fruits drop-applied with ABA or JA for 24 h.

CC/C=C\C[C@H]1C(=O)CC[C@@H]1CC(=O)O [JA, Jasmonic acid]
accumulation of PepCYP mRNA (ripe fruit, 40 μM drop-applied, 24 h): highly accumulated | induction of PepCYP expression (unripe fruit, 100, 400 and 1000 μM (data not shown)): No induction

CC1=CC(=O)CC(C)(C)[C@@]1(O)/C=C/C(C)=C\C(=O)O [ABA, abscisic acid]
expression of PepCYP (both ripe and unripe fruits, 4 and 40 μM drop-applied, 24 h): did not affect
